# Assay results taken from paper PMC9183037 (Polymers, 2022).
# Legend:
# [1] = system: Caco-2 cells; assay: Cytotoxicity by MTT assay, 4 h incubation; format: cell-based, Human; settings: 0.03-1 μM
# Method: (§1) The cytotoxicity of chitosan-based nanoparticles was measured by MTT assay. Caco-2, HT-29, and Raji-B cells at the logarithmic growth stage were inoculated on 96-well plates at 5 × 10^3 cells per well, respectively. The cells were cultured at 37 °C, 5% CO2 for 48 h, then the culture medium was removed and 150 μL of drug-containing culture medium was added to the final concentrations of 1, 0.5, 0.25, 0.125, 0.06, and 0.03 μM. After incubation for 4 h, 20 μL of MTT solution (5 mg/mL) was added to each well, which was incubated for an additional 4 h. Then, the culture medium was discarded and replaced with 150 μL dimethyl sulfoxide. The plates were placed on the shaker and oscillated for 10 min.
# (§2) The absorbance was measured at 570 nm using an enzyme marker (ST360, KHB, Shanghai, China). Cell viability was calculated as a percentage of the absorbance relative to that of the control.
# [2] = system: HT-29 cells; assay: Cytotoxicity by MTT assay, 4 h incubation; format: cell-based, Human; settings: 0.03-1 μM
# Method: as §1, §2
# [3] = system: Raji-B cells; assay: Cytotoxicity by MTT assay, 4 h incubation; format: cell-based, Human; settings: 0.03-1 μM
# Method: as §1, §2
# [4] = system: type 2 diabetic rats; assay: In vivo pharmacodynamics study: blood glucose in type 2 diabetic rats; set-up: species or system Sprague-Dawley (SD) rats; settings: T2DM rats, subcutaneous 65 μg/kg
# Method: SD rats were fed high-fat diets containing 45% fat to induce insulin resistance. After one-month diets, a standard 16 h fast in SD rats was conducted, and a 30 mg/mL STZ solution prepared with 0.1 mol/L citrate-sodium citrate buffer (pH 4.5) was injected intraperitoneally at a dose of 30 mg/kg (avoid light, the injection was completed within 30 min). Then the rats were given sufficient water and fasted. Restored the diet after 2 h. If the fasting blood glucose was higher than 16.67 mmol/L for two consecutive times, and the rats were accompanied by significant polydipsia, polyphagia, polyuria, and weight loss, it is considered to be successfully modeled and subsequent experiments could be carried out. To evaluate therapeutic effects, thirty T2DM rats were randomly divided into five groups, fasted overnight, and labeled respectively. […] Blood samples were collected from the tail tip at 0, 0.5, 1, 2, 3, 4, 6, and 10 h after administration to observe the changes in blood glucose levels, and the blood glucose-time curve was plotted.
Compound,cytotoxicity to Caco-2 cells [1],cytotoxicity to HT-29 cells [2],cytotoxicity to Raji B cells [3],time of minimum blood glucose concentration [4],change of blood glucose concentration ([4]; 0-10 h)
CCN(CC)c1ccc2c(-c3ccccc3C(=O)O)c3ccc(=[N+](CC)CC)cc-3oc2c1 [Rhodamine B],no cytotoxicity,no cytotoxicity,no cytotoxicity,,
Insulin,,,,3 h,decreased significantly within 3 h
